This note sets out measurements from patent publication US9346798B2, “Dihydrobenzoxazine and tetrahydroquinoxaline sodium channel inhibitors” (AMGEN INC., priority 2012, dated 2016).

The term IC50 denotes the concentration that gives 50% inhibition. A word on the inhibition: it is the relative decrease from the control value, in per cent.

Common to all, as to format: cell-based
In series [1] the target is T1, Nav 1.7 (Homo sapiens (Human), UniProt Q15858). The experiment in a line: Nav 1.7 in vitro assay, IonWorks Quattro (IWQ) population patch-clamp. The following applies: HEK 293 cells stably transfected with Nav 1.7; 26th pulse to -20 mV. (In general: In patch-clamp work, channel activity is measured electrically.)
The target of series [2] is T1, Nav 1.7. The experiment in a line: Nav 1.7 in vitro PX assay, PatchXpress whole cell voltage clamp. The settings on record: HEK 293 cells stably transfected with human Nav1.7; for IC50: partially inactivated state (20 to 50% inactivation). The method in brief: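 Partially inactivated channels (20–50% inactivation at holding potential) were probed on automated patch clamp in stably transfected HEK293 cells, stepping to −10 mV for 20 msec every 10 s (0.1 Hz).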

Series [3] concerns the target Nav 1.5 (Homo sapiens (Human), UniProt Q14524). The experiment in a line: Nav 1.5 in vitro assay, IonWorks Quattro (IWQ) population patch-clamp. The following applies: HEK 293 cells stably transfected with Nav 1.5; 26th pulse to -20 mV.

Nav 1.5, sequence (Q14524 whole entry): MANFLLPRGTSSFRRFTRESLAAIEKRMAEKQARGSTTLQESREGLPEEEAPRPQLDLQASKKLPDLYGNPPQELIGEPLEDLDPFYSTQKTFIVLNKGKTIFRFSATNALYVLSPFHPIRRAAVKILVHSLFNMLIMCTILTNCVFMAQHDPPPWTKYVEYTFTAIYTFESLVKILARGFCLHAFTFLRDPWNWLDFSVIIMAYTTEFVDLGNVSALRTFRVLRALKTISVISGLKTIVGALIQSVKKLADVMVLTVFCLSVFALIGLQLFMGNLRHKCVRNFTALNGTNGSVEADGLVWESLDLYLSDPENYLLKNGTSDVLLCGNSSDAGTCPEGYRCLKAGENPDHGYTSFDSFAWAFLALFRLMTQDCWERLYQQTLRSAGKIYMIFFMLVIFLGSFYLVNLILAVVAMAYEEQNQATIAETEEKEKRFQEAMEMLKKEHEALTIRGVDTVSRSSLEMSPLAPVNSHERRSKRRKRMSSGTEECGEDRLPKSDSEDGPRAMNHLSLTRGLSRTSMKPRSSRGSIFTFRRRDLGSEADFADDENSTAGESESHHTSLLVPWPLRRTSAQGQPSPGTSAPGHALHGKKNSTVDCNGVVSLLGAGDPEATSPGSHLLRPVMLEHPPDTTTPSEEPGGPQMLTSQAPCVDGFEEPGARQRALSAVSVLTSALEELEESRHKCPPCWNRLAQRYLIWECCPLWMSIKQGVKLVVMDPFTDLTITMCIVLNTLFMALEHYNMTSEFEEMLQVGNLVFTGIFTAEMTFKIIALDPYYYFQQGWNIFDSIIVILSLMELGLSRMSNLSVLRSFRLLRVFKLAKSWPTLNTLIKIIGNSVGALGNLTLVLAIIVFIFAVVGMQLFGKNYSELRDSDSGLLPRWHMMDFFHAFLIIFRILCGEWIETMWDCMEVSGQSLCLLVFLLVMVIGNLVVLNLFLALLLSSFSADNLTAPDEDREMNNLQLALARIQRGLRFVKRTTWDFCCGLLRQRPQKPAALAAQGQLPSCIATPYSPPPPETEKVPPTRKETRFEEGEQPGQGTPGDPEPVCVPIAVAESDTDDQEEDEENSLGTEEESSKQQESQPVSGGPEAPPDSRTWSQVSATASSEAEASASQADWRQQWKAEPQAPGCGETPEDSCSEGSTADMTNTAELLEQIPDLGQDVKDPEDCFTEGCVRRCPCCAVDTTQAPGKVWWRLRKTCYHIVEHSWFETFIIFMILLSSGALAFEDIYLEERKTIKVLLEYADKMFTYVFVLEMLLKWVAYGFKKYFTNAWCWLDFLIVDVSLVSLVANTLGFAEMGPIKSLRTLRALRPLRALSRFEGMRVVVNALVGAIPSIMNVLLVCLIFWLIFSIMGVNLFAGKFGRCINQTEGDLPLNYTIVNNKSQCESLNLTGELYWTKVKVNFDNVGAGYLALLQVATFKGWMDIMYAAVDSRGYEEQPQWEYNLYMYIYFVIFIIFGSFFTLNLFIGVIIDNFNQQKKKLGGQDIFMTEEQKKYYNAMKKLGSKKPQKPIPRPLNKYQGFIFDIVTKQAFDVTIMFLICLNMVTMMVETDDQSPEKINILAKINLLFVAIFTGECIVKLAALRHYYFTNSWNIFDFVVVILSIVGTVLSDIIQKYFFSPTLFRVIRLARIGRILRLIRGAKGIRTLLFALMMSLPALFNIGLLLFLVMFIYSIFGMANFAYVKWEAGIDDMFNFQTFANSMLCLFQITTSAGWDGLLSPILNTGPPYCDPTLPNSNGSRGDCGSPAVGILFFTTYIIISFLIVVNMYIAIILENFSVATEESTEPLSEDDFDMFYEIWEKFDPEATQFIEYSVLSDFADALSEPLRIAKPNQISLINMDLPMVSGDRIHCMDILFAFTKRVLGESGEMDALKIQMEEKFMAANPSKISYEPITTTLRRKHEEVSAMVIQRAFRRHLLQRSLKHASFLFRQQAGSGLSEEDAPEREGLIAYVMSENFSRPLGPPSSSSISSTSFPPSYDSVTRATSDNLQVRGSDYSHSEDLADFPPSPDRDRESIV
T1 sequence (Q15858 whole entry): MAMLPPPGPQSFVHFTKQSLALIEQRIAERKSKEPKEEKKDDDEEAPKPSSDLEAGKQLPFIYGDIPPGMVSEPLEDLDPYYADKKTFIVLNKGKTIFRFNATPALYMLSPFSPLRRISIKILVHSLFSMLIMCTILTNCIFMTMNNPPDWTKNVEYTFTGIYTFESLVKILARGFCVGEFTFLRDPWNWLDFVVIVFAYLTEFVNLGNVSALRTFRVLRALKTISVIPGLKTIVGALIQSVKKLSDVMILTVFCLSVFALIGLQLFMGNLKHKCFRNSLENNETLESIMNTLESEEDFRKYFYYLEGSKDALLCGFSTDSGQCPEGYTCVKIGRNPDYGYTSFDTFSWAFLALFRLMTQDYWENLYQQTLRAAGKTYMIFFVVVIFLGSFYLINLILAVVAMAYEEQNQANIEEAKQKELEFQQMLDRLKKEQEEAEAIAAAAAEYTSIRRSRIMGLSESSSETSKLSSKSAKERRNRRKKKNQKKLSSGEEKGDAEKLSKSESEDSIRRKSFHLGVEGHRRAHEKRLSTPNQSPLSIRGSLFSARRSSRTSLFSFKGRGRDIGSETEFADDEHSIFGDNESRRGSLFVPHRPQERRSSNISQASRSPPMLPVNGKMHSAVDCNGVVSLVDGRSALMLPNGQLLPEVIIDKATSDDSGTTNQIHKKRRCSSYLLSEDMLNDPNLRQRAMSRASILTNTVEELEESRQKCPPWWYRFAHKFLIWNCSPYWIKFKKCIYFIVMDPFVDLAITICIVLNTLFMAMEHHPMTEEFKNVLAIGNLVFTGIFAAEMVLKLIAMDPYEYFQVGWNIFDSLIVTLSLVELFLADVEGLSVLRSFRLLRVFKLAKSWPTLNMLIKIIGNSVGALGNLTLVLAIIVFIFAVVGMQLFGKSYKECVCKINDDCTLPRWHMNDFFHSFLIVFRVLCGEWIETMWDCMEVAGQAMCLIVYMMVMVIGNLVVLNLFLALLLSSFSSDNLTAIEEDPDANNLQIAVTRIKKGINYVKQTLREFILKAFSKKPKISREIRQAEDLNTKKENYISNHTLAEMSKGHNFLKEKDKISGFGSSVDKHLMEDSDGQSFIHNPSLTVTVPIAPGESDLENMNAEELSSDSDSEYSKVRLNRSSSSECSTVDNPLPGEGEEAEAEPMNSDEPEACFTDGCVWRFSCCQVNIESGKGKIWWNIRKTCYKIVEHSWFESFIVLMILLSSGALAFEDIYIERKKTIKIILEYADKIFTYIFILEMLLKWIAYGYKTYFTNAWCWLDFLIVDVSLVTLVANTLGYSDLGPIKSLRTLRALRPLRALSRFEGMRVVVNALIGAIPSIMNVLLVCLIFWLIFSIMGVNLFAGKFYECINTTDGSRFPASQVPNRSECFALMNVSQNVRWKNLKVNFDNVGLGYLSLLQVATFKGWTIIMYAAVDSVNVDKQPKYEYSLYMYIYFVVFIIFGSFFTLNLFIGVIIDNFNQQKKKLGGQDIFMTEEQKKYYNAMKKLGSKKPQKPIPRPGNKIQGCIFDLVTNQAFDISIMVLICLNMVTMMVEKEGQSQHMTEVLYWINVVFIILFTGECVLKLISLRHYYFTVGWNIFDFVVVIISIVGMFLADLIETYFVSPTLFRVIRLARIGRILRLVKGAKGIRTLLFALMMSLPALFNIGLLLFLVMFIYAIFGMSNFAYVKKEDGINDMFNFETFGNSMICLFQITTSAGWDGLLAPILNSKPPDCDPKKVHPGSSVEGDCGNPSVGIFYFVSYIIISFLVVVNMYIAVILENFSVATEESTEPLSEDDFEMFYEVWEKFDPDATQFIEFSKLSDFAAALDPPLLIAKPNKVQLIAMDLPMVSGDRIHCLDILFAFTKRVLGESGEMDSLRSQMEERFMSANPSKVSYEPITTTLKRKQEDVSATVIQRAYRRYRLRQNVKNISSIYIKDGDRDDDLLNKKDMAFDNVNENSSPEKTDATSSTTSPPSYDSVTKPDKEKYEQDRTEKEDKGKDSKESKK

For the compound `Cc1cncc(C)c1N1CCOc2cc(S(=O)(=O)Nc3nccs3)ccc21` [Example 133, 4-(3,5-Dimethylpyridin-4-yl)-N-(thiazol-2-yl)-3,4-dihydro-2H-benzo[b][1,4]oxazine-7-sulfonamide], the IC50 in series [1] is 1590 nM; in series [3] it was greater than 10000 nM. Besides, the inhibition at 4.9 µM in series [2] (HEK293, values marked *, 4.9 μM, read-out: Nav 1.7 PX percent inhibition at 4.9 μM) was 20.2%.

Turning to `Cc1cc(C#N)ccc1N1CCOc2cc(S(=O)(=O)Nc3nccs3)ccc21` [Example 226, 4-(4-Cyano-2-Methylphenyl)-N-(Thiazol-2-Yl)-3,4-Dihydro-2H-Benzo[B][1,4]Oxazine-7-Sulfonamide], the IC50 in series [1] was 36.5 nM; in series [2] it was 740 nM; in series [3], greater than 10000 nM.

In the case of `COc1ccc(F)cc1N1CCOc2cc(S(=O)(=O)Nc3nccs3)ccc21` [Example 151, 4-(5-Fluoro-2-methoxyphenyl)-N-(thiazol-2-yl)-3,4-dihydro-2H-benzo[b][1,4]oxazine-7-sulfonamide], the 50% inhibitory concentration (IC50) in series [1] is 13.5 nM; in series [2], 158 nM; in series [3], greater than 10000 nM.

For the compound `O=S(=O)(Nc1nccs1)c1ccc2c(c1)OCCN2c1cncc(Cl)c1` [Example 130, 4-(5-Chloropyridin-3-yl)-N-(thiazol-2-yl)-3,4-dihydro-2H-benzo[b][1,4]oxazine-7-sulfonamide], the results for the IC50 in series [1], in series [2] and in series [3] were 635 nM, 5290 nM and 6200 nM, respectively.

With `Cn1nccc1-c1ccccc1N1CCOc2cc(S(=O)(=O)Nc3nccs3)ccc21` [Example 148, 4-(2-(1-Methyl-1H-pyrazol-5-yl)phenyl)-N-(thiazol-2-yl)-3,4-dihydro-2H-benzo[b][1,4]oxazine-7-sulfonamide], the IC50 in series [1] is 66.5 nM; in series [2], 782 nM; in series [3], greater than 10000 nM.

In the case of `CN1CCN(c2cc(C(F)(F)F)ccc2N2CCOc3cc(S(=O)(=O)Nc4nccs4)ccc32)CC1` [Example 50, 4-(2-(4-Methylpiperazin-1-Yl)-4-(Trifluoromethyl)Phenyl)-N-(Thiazol-2-Yl)-3,4-Dihydro-2H-Benzo[B][1,4]Oxazine-7-Sulfonamide 2,2,2-Trifluoroacetate], the 50% inhibitory concentration (IC50) in series [1] came out at 117 nM; in series [2], 315 nM; in series [3], 957 nM.

As to `Cc1ccc(Cl)c(N2CCOc3cc(S(=O)(=O)Nc4nccs4)ccc32)c1` [Example 67, 4-(2-Chloro-5-Methylphenyl)-N-(Thiazol-2-Yl)-3,4-Dihydro-2H-Benzo[B][1,4]Oxazine-7-Sulfonamide 2,2,2-Trifluoroacetate], the figures for the 50% inhibitory concentration (IC50) in series [1], in series [2] and in series [3] were 381 nM, 442 nM and 5330 nM, respectively.

As to `O=S(=O)(Nc1ncns1)c1ccc2c(c1)OCCN2c1ccc(C(F)(F)F)cc1C1=CCOCC1` [Example 25, 4-(2-(3,6-Dihydro-2H-Pyran-4-Yl)-4-(Trifluoromethyl)Phenyl)-N-(1,2,4-Thiadiazol-5-Yl)-3,4-Dihydro-2H-Benzo[B][1,4]Oxazine-7-Sulfonamide], the IC50 in series [1] stood at 12.3 nM; in series [2], 146 nM; in series [3], 214 nM.

Turning to `O=S(=O)(Nc1ccncn1)c1ccc2c(c1)OCCN2c1ncc(C(F)(F)F)cc1Cl` [Example 99, 4-(3-Chloro-5-(Trifluoromethyl)Pyridin-2-Yl)-N-(Pyrimidin-4-Yl)-3,4-Dihydro-2H-Benzo[B][1,4]Oxazine-7-Sulfonamide], the 50% inhibitory concentration (IC50) in series [1] is 327 nM; in series [2], 4970 nM; in series [3], greater than 10000 nM.

Take `N#Cc1cc(C(F)(F)F)ccc1N1CCOc2cc(S(=O)(=O)Nc3nccs3)ccc21` [Example 49, 4-(2-Cyano-4-(Trifluoromethyl)Phenyl)-N-(Thiazol-2-Yl)-3,4-Dihydro-2H-Benzo[B][1,4]Oxazine-7-Sulfonamide]: the IC50 in series [1] is 15 nM; in series [2], 193 nM; in series [3], 1150 nM.

Take `COc1cc(C#N)ccc1N1C[C@H](C)Oc2cc(S(=O)(=O)Nc3nccs3)ccc21` (single isomer, unassigned) [Example 107]: the IC50 in series [1] is 28.5 nM; in series [2] it was 309 nM; in series [3], greater than 10000 nM.

In the case of `O=S(=O)(Nc1ncns1)c1ccc2c(c1)OCCN2c1cccc2ncccc12` [Example 33, 4-(Quinolin-5-Yl)-N-(1,2,4-Thiadiazol-5-Yl)-3,4-Dihydro-2H-Benzo[B][1,4]Oxazine-7-Sulfonamide], the concentration for half-maximal inhibition (IC50) in series [1] is 141 nM; in series [2] it was 1190 nM; in series [3] it was greater than 10000 nM.

Regarding `O=S(=O)(Nc1nccs1)c1ccc2c(c1)OCCN2c1ccc(C(F)(F)F)cc1-c1cncnc1` [Example 54, 4-(2-(Pyrimidin-5-Yl)-4-(Trifluoromethyl)Phenyl)-N-(Thiazol-2-Yl)-3,4-Dihydro-2H-Benzo[B][1,4]Oxazine-7-Sulfonamide 2,2,2-Trifluoroacetate], the IC50 amounted to 11.5 nM in series [1], 585 nM in series [2] and 731 nM in series [3].

Consider `COc1cc(Cl)ccc1N1C[C@@H](C)Oc2cc(S(=O)(=O)Nc3nccs3)ccc21` (single isomer, unassigned) [Example 105], for which the IC50 is 53.5 nM in series [1], 894 nM in series [2] and greater than 10000 nM in series [3].

With `COc1cncc(N2CCOc3cc(S(=O)(=O)Nc4nccs4)ccc32)c1` [Example 131, 4-(5-Methoxypyridin-3-yl)-N-(thiazol-2-yl)-3,4-dihydro-2H-benzo[b][1,4]oxazine-7-sulfonamide], the IC50 in series [1] is 1310 nM; in series [2], 23300 nM; in series [3], greater than 10000 nM.

`N#Cc1ccc(OC(F)(F)F)cc1N1CCOc2cc(S(=O)(=O)Nc3nccs3)ccc21` [Example 128, 4-(2-Cyano-5-(trifluoromethoxy)phenyl)-N-(thiazol-2-yl)-3,4-dihydro-2H-benzo[b][1,4]oxazine-7-sulfonamide]: the IC50 in series [1] came out at 69.5 nM; in series [2], 912 nM; in series [3] it was 3690 nM.

Consider `NCc1nsc(NS(=O)(=O)c2ccc3c(c2)OCCN3c2ccc(C(F)(F)F)cc2Cl)n1` [Example 8, N-(3-(Aminomethyl)-1,2,4-Thiadiazol-5-Yl)-4-(2-Chloro-4-(Trifluoromethyl)Phenyl)-3,4-Dihydro-2H-Benzo[B][1,4]Oxazine-7-Sulfonamide 2,2,2-Trifluoroacetate], for which the 50% inhibitory concentration (IC50) in series [1] is 7580 nM; in series [2], 16000 nM; in series [3] it was greater than 10000 nM.

Consider `COc1ccc(OC)c(N2CCOc3cc(S(=O)(=O)Nc4nccs4)ccc32)c1` [Example 139, 4-(2,5-Dimethoxyphenyl)-N-(thiazol-2-yl)-3,4-dihydro-2H-benzo[b][1,4]oxazine-7-sulfonamide], for which the IC50 stood at 69.5 nM in series [1], 415 nM in series [2] and 7040 nM in series [3].

For `Cc1cc(N2CCOc3cc(S(=O)(=O)Nc4nccs4)ccc32)ccc1F` [Example 81, 4-(4-Fluoro-3-Methylphenyl)-N-(Thiazol-2-Yl)-3,4-Dihydro-2H-Benzo[B][1,4]Oxazine-7-Sulfonamide 2,2,2-Trifluoroacetate], the results for the concentration for half-maximal inhibition (IC50) in series [1], in series [2] and in series [3] were 288 nM, 1650 nM and greater than 10000 nM, respectively.

`COc1cc(C)c(N2CCOc3cc(S(=O)(=O)Nc4nccs4)ccc32)cn1` [Example 137, 4-(6-Methoxy-4-methylpyridin-3-yl)-N-(thiazol-2-yl)-3,4-dihydro-2H-benzo[b][1,4]oxazine-7-sulfonamide]: the concentration for half-maximal inhibition (IC50) in series [1] is 914 nM; in series [2], 21700 nM; in series [3], greater than 10000 nM.
